Patent EP4781993A1, “ANTIBACTERIAL COMPOSITION AND ANTIBACTERIAL DRUG” (Shenzhen China Resources Gosun Pharmaceuticals Co., Ltd., priority 2023, dated 2025)

Assays:
[1] = tested on: KPC-2 producing Klebsiella pneumoniae; test: Broth-microdilution MIC (CLSI M07-A11) against clinical isolates; assay type: cell-based; conditions: for MIC range / MIC50 / MIC90 / Mode: 12 strains; for MIC range / MIC50 / MIC90: MIC = ceftobiprole concentration (groups A2, B2, C2, D2, E2: inhibitor alone); for MIC50 / MIC90: Klebsiella pneumoniae; for MIC50: read-out: MIC50; for MIC90: read-out: MIC90; for Cumulative inhibition rate (%) / Cumulative number of strains / Number of strains: MIC >128 mg/L; for Mode: mode of MIC; for antibacterial activity: verdict in words
Excerpt: (§1) As recommended by CLSI (Clinical and Laboratory Standards Institute) M07-A11 (2018 edition), the Broth-microdilution method is adopted to determine the minimum inhibitory concentration (MIC) of ceftobiprole and zidebactam against clinical isolates. It should be noted that, in the present disclosure, MIC50 refers to the minimum drug concentration that inhibits the growth of 50% of the tested bacteria, and MIC90 refers to the minimum drug concentration that inhibits the growth of 90% of the tested bacteria.
(§2) Antibacterial drug: ceftobiprole, manufacturer: Shenyang Sanjiu Pharmaceutical, content: 92.1%, batch number: YF/BALP141/000. Zidebactam, manufacturer: Target M01 company, batch number: 149661. Zidebactam, as described above, the English name is Zidebactam, and the chemical name is: (2S,5R)-7-oxo-2-(2-((R)-piperidine-3-carbonyl)hydrazine-1-carbonyl)-1,6-diazabicyclo[3.2.1]octan-6-yl hydrogen sulfate.
(§3) Tested strains: a total of 24 genotypic strains producing KPC or OXA β-lactamase. Specifically, the tested strains include 24 strains of Klebsiella pneumoniae, including 12 KPC-2 producing strains and 12 OXA-232 producing strains.
(§4) Quality control strains: Escherichia coli ATCC 25922, (KPC-2 producing) Klebsiella pneumoniae ATCC BAA-1705, and (NDM-1 producing) Klebsiella pneumoniae ATCC BAA-2146.
(§5) Medium: cation-adjusted Mueller-Hinton broth (CAMHB), a product of BBL Company, USA.
(§6) Inoculum size: Pure isolated colonies were adjusted with normal saline to 0.5 McFarland turbidity. After appropriate dilution, the suspension was added to the wells of a 96-well U-bottom microplate (containing 50 µL antibacterial drug solution). The inoculum size was 5 × 10^5 CFU/mL.
(§7) Culture conditions: air environment, 35°C ± 2°C, 16 to 20 hours.
(§8) Preparation of Antibacterial Drug Solution : Ceftobiprole and zidebactam were taken separately, dissolution and dilution were performed according to the antibacterial drug reference to the CLSI standards and the drug package insert, A1 to A6, a total of 6 groups of antibacterial drug solutions, were prepared, among which, group A1 was the control group containing solely the single agent ceftobiprole, and group A2 was the control group containing solely the single agent zidebactam. Different antibacterial drug solutions with ceftobiprole concentrations ranging from 128 mg/L to 0.06 mg/L were respectively included in groups A1 and A3 to A6, and different antibacterial drug solutions with zidebactam concentrations ranging from 128 mg/L to 0.06 mg/L were included in group A2. The specific concentrations within the range of 128 mg/L to 0.06 mg/L in groups A1 to A6 were respectively 128 mg/L, 64 mg/L, 32 mg/L, 16 mg/L, 8 mg/L, 4 mg/L, 2 mg/L, 1 mg/L, 0.5 mg/L, 0.25 mg/L, 0.125 mg/L, or 0.06 mg/L, respectively. Table 1. Concentrations of ceftobiprole/zidebactam contained in the antibacterial drug solutions of groups A1 to A6
(§9) Experimental results: Currently, there are no established CLSI or EUCAST breakpoints for ceftobiprole/β-lactamase inhibitor. Therefore, the antibacterial activity of ceftobiprole/β-lactamase inhibitor is evaluated in accordance with the standards for ceftobiprole. WHONET 5.6 software is used to perform statistical analysis on the results of antibacterial susceptibility test. The fractional inhibitory concentration index (FIC) for the combination of ceftobiprole and zidebactam is calculated according to Equation (1). FIC index = (MIC of drug A in combination)/(MIC of drug A alone) + (MIC of drug B in combination)/(MIC of drug B alone) [formula]
(§10) In Equation (1), drug A is ceftobiprole, and drug B is zidebactam. […] Table 2. In vitro antibacterial activity of ceftobiprole/zidebactam against the tested bacteria in Example 1 […]

[2] = tested on: OXA-232 producing Klebsiella pneumoniae; test: as above; assay type: cell-based; conditions: for MIC range / MIC50 / MIC90 / Mode: 12 strains; for MIC range / MIC50 / MIC90: MIC = ceftobiprole concentration (groups A2, B2, C2, D2, E2: inhibitor alone); for MIC50 / MIC90: Klebsiella pneumoniae; for Cumulative inhibition rate (%) / Cumulative number of strains / Number of strains: MIC >128 mg/L; for Mode: mode of MIC; for antibacterial activity: verdict in words
Excerpt: as §1, §2, §3, §4, §5, §6, §7, §8, §9, §10

SMILES | MIC range [1] [µg/mL] | MIC50 [1] [µg/mL] | MIC90 [1] [µg/mL] | Cumulative inhibition rate (%) [1] [%] | Cumulative number of strains [1] | Number of strains [1] | Mode [1] [mg/L] | antibacterial activity [1] | MIC range [2] [µg/mL] | MIC50 [2] [µg/mL] | MIC90 [2] [µg/mL] | Cumulative inhibition rate (%) [2] [%] | Cumulative number of strains [2] | Number of strains [2] | Mode [2] [mg/L] | antibacterial activity [2]
C[n+]1ccn(C[C@@]2(C)[C@H](C(=O)[O-])N3C(=O)C[C@H]3S2(=O)=O)n1 [Group E2, (2S,3S,5R)-3-methyl-3-[(3-methyltriazol-3-ium-1-yl)methyl]-4,4,7-trioxo-4-amino-6-thia-1-azabicyclo[3.2.0]heptane-2-carboxylate] | >128 | ≥ 128 | ≥ 128 | 100 | 12 | 12 | >128 | no antibacterial activity | >128 | ≥ 128 | ≥ 128 | 100 | 12 | 12 | >128 | no antibacterial activity
NCCN[C@H]1CC[C@H](CC(=O)N[C@H]2Cc3cccc(C(=O)O)c3OB2O)CC1 [Group D2, (R)-3-(2-((1r,4R)-4-((2-aminoethyl)amino)cyclohexyl)acetamido)-2-hydroxy-3,4-dihydro-2H-benzo[e][1,2]oxaborinine-8-carboxylic acid] | >128 | > 128 | > 128 | 100 | 12 | 12 | >128 | no antibacterial activity | >128 | > 128 | > 128 | 100 | 12 | 12 | >128 | no antibacterial activity
